# Patent US11926628B2 (Gilead Sciences, Inc., priority 2021, dated 2024)
# pEC50, pIC50: −log10 of the molar value.
# Key:
# [1] = biological target: human DGKα (Homo sapiens (Human), UniProt P23743); experiment: DGKα Biochemical Activity Assay (ADP-Glo); conditions: recombinant DGKα 1 nM, 100 μM ATP, 18:1 DAG/POPS/octylglucoside micelles, 1 hour at 25° C.; geometric mean; read-out: HTBS DGKa 1X ATP KM IC50
# Text: Alternatively, the enzymatic activity of human DGKα was monitored in a biochemical assay in the presence or absence of compounds and using micelles containing 18:1 Diacylglycerol (DAG), 16:0-18:1 PS (POPS) and Octylglucoside as substrate. DGKα activity led to conversion of DAG and ATP to Phosphatidic Acid (PA) and ADP. Levels of ADP were monitored by bioluminescence using the ADP-Glo Kinase Assay (Promega) and were indicative of DGKα activity.
# Ten nanoliters of test compound dissolved in DMSO at various concentrations were dispensed into a 384-well low volume nonbinding service white plates (Corning #3824) using a Labcyte Echo instrument. Recombinant DGKα (Carna Biosciences) in assay buffer (5 μL in 50 mM MOPS [3-(N-morpholino) propanesulfonic acid], pH 7.2; 0.0025% Triton X-100; 1 mM dithiothreitol; 5 mM MgCl2, 200 μM ATP) was added to the compound-containing plate and was incubated for 15 minutes at 25° C. A substrate solution (5 μL in 1.7 mM 1,2-dioleoyl-sn-glycerol [18:1 DAG], 13.5 mM 1-palmitoyl-2-oleoyl-sn-glycero-3-phospho-L-serine [16:0-18:1 PS](POPS), 2 μM CaCl2, 100 mM Octylglucoside (OG), 1 mM DTT) (obtained from Carna Biosciences) diluted in DGK ALPHA assay buffer was then added to start the reaction. Final concentrations were 1 nM DGKα, 100 μM ATP, 1 μM calcium chloride, 0.85 mM 1,2-dioleoyl-sn-glycerol (18:1 DAG), 6.75 mM 1-palmitoyl-2-oleoyl-sn-glycero-3-phospho-L-serine (16:0-18:1 PS) (POPS), 1 μM CaCl2), 50 mM Octylglucoside (OG) and 5 mM MgCl2. The reaction mixture was incubated at 25° C. for 1 hour. ADP-Glo Reagent (10 μL, 10 mM Mg added) provided by the kit was added to each well and incubated at 25° C. for 40 minutes. Then, 20 μL of Kinase Detection Reagent was added and incubated at 25° C. for 40 minutes. Luciferase activity of each well was measured via luminescence on an Envision plate reader (PerkinElmer).
# Data were normalized based on maximum inhibition (50 μM of kinase inhibitor CU3) and no inhibition (DMSO) controls. Least squares curve fittings were performed using a four-parameter variable slope nonlinear regression model. IC50 was defined as the concentration of compound required to inhibit 50% of maximum activity. IC50 values from multiple experiments were averaged by geometric mean and the standard deviation was calculated.
# [2] = tested on: Jurkat NFκB-luciferase cells; experiment: Jurkat NFκB-Luciferase Assay; assay type: cell-based; conditions: Homo sapiens; Jurkat NFκB-luciferase cells activated with anti-CD3 antibody (OKT3), 2.5 hrs at 37° C.; geometric mean; read-out: DGK NFKb Luciferase EC50
# Protocol: The activity of compounds was tested in a cell based NFκB reporter assay. Jurkat cells that are stably expressing a luciferase reporter construct under the transcriptional control of a NFκB reporter element were activated with an anti-CD3 antibody and luciferase levels were measured with a bioluminescence readout. An increase in the levels of bioluminescence was indicative of enhanced T-cell activation following DGKα inhibition by the compound.
# Flat-bottom polystyrene plates (384-well, tissue culture treated) were coated overnight at 4° C. with 20 ul/well of a solution of phosphate-buffered saline supplemented with 5 ug/ml anti-CD3 antibody (clone OKT3, Biolegend). The day after, the excess antibody was washed out five times with 100 ul/well of assay medium (RPMI supplemented with 10% fetal bovine serum) using a Biotek EL406 instrument and leaving 20 ul of residual volume in each well. Jurkat NFκB-luciferase cells (Promega #) were harvested and diluted to 1 million cells/ml in assay medium. Sixty nanoliters of test compound dissolved in DMSO at various concentrations were dispensed into 384-well v-bottom polypropylene plates (Greiner) using a Labcyte Echo instrument. Thirty microliters of medium containing the Jurkat NFκB-luciferase cells were then dispensed using a Biotek MicroFlo instrument in each well of the compound-containing plate. The medium/cell/compound mixture was mixed with a Bravo instrument and 20 ul/well of the mixture was transferred to the anti-CD3-coated plate. The assay mixture was then incubated for 2.5 hrs at 37° C. followed by equilibration at 25° C. for 30 min. Forty microliters of One-Glo Ex (Promega) was then added to the assay mixture and luciferase activity was read on a Envision plate reader 7 minutes later.
# Bioluminescence data were normalized based on maximum enhancement (1 micromolar of compound) and on basal activation (DMSO) controls. Least squares curve fittings were performed using a four-parameter variable slope nonlinear regression model. EC50 is defined as the concentration of compound required to produce 50% of maximum NFκB luciferase signal. EC50 values from multiple experiments were averaged by geometric mean and the standard deviation was calculated.
# Sequence of human DGKα (P23743 whole entry): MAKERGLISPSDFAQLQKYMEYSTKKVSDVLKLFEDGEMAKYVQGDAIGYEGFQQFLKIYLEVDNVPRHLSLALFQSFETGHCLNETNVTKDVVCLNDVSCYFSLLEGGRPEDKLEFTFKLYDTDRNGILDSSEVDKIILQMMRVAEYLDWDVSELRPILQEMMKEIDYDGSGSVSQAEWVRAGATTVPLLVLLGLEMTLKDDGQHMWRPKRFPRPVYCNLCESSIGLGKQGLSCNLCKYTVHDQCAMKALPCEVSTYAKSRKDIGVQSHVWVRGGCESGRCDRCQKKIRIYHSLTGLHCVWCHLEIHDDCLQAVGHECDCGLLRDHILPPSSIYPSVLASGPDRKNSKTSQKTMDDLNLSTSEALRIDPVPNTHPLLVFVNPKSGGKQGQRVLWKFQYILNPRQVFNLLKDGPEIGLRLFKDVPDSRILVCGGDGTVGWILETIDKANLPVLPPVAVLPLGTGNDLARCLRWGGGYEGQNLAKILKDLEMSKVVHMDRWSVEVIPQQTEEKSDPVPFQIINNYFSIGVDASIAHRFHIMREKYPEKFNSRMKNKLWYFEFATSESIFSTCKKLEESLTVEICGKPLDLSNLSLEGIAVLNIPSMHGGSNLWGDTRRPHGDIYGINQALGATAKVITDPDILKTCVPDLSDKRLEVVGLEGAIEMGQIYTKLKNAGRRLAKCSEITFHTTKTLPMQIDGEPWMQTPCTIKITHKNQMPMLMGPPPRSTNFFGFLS
Compound,pIC50 [1],pEC50 [2]
"Cc1nnc2nc(N3CCCc4c(C#CC5(C(F)(F)F)CC5)cncc43)c3c(F)cncc3n12 [Example 39, 6-fluoro-1-methyl-5-(5-((1-(trifluoromethyl)cyclopropyl)ethynyl)-3,4-dihydro-1,7-naphthyridin-1(2H)-yl)pyrido[4,3-e][1,2,4]triazolo[4,3-a]pyrimidine]",7.58,8.32
"Cc1nnc2nc(N3CCCc4c(C#CC5(C)CC5)cccc43)c3c(F)cncc3n12 [Example 40, 6-fluoro-1-methyl-5-(5-((1-methylcyclopropyl)ethynyl)-3,4-dihydroquinolin-1(2H)-yl)pyrido[4,3-e][1,2,4]triazolo[4,3-a]pyrimidine]",8.10,8.67
"CC(C)(O)C#Cc1cc(F)cc(N(CC(F)F)c2nc3nncn3c3cncc(F)c23)c1 [Example 42, 4-(3-((2,2-difluoroethyl)(6-fluoropyrido[4,3-e][1,2,4]triazolo[4,3-a]pyrimidin-5-yl)amino)-5-fluorophenyl)-2-methylbut-3-yn-2-ol]",7.45,7.37
"Fc1cc(C#CC2(C(F)F)CC2)cc(N(CC(F)F)c2nc3nncn3c3cncc(F)c23)c1 [Example 43, N-(2,2-difluoroethyl)-N-(3-((1-(difluoromethyl)cyclopropyl)ethynyl)-5-fluorophenyl)-6-fluoropyrido[4,3-e][1,2,4]triazolo[4,3-a]pyrimidin-5-amine]",7.48,8.26
"CC(C)(C)C#Cc1cc(F)cc(N(CC(F)F)c2nc3nncn3c3cncc(F)c23)c1 [Example 44, N-(2,2-difluoroethyl)-N-(3-(3,3-dimethylbut-1-yn-1-yl)-5-fluorophenyl)-6-fluoropyrido[4,3-e][1,2,4]triazolo[4,3-a]pyrimidin-5-amine]",7.49,8.71
"CC1(C#Cc2cc(F)cc(N(CC(F)F)c3nc4nncn4c4cncc(F)c34)c2)CC1 [Example 45, N-(2,2-difluoroethyl)-6-fluoro-N-(3-fluoro-5-((1-methylcyclopropyl)ethynyl)phenyl)pyrido[4,3-e][1,2,4]triazolo[4,3-a]pyrimidin-5-amine]",7.28,8.57
"CC(C)(C#Cc1cc(F)cc(N(CC(F)F)c2nc3nncn3c3cncc(F)c23)c1)C(F)(F)F [Example 46, N-(2,2-difluoroethyl)-6-fluoro-N-(3-fluoro-5-(4,4,4-trifluoro-3,3-dimethylbut-1-yn-1-yl)phenyl)pyrido[4,3-e][1,2,4]triazolo[4,3-a]pyrimidin-5-amine]",7.39,8.48
"Fc1cc(C#CC2(C(F)(F)F)CC2)cc(N(CC(F)F)c2nc3nncn3c3cncc(F)c23)c1 [Example 47, N-(2,2-difluoroethyl)-6-fluoro-N-(3-fluoro-5-((1-(trifluoromethyl)cyclopropyl)ethynyl)phenyl)pyrido[4,3-e][1,2,4]triazolo[4,3-a]pyrimidin-5-amine]",7.30,8.37
"Cc1nnc2nc(N(CC(F)F)c3cc(F)cc(C#CC(C)(C)O)c3)c3c(F)cncc3n12 [Example 48, 4-(3-((2,2-difluoroethyl)(6-fluoro-1-methylpyrido[4,3-e][1,2,4]triazolo[4,3-a]pyrimidin-5-yl)amino)-5-fluorophenyl)-2-methylbut-3-yn-2-ol]",7.31,7.01
"Cc1nnc2nc(N(CC(F)F)c3cc(F)cc(C#CC4(C)CC4)c3)c3c(F)cncc3n12 [Example 49, N-(2,2-difluoroethyl)-6-fluoro-N-(3-fluoro-5-((1-methylcyclopropyl)ethynyl)phenyl)-1-methylpyrido[4,3-e][1,2,4]triazolo[4,3-a]pyrimidin-5-amine]",7.90,8.22
"Cc1nnc2nc(N(CC(F)F)c3cc(F)cc(C#CC(C)(C)C(F)(F)F)c3)c3c(F)cncc3n12 [Example 50, N-(2,2-difluoroethyl)-6-fluoro-N-(3-fluoro-5-(4,4,4-trifluoro-3,3-dimethylbut-1-yn-1-yl)phenyl)-1-methylpyrido[4,3-e][1,2,4]triazolo[4,3-a]pyrimidin-5-amine]",7.89,8.31
"Cc1nnc2nc(N(CC(F)F)c3cc(F)cc(C#CC4(C(F)(F)F)CC4)c3)c3c(F)cncc3n12 [Example 51, N-(2,2-difluoroethyl)-6-fluoro-N-(3-fluoro-5-((1-(trifluoromethyl)cyclopropyl)ethynyl)phenyl)-1-methylpyrido[4,3-e][1,2,4]triazolo[4,3-a]pyrimidin-5-amine]",7.44,8.04
"Cc1nnc2nc(N(CC(F)F)c3ccnc(C#CC(C)(C)O)c3)c3c(F)cncc3n12 [Example 52, 4-(4-((2,2-difluoroethyl)(6-fluoro-1-methylpyrido[4,3-e][1,2,4]triazolo[4,3-a]pyrimidin-5-yl)amino)pyridin-2-yl)-2-methylbut-3-yn-2-ol]",6.69,6.00
"Cc1nnc2nc(N(CC(F)F)c3ccnc(C#CC4(C(F)(F)F)CC4)c3)c3c(F)cncc3n12 [Example 53, N-(2,2-difluoroethyl)-6-fluoro-1-methyl-N-(2-((1-(trifluoromethyl)cyclopropyl)ethynyl)pyridin-4-yl)pyrido[4,3-e][1,2,4]triazolo[4,3-a]pyrimidin-5-amine]",7.80,7.92
"CC(C)(O)C#Cc1cc(N(CC(F)F)c2nc3nncn3c3cncc(F)c23)ccn1 [Example 54, 4-(4-((2,2-difluoroethyl)(6-fluoropyrido[4,3-e][1,2,4]triazolo[4,3-a]pyrimidin-5-yl)amino)pyridin-2-yl)-2-methylbut-3-yn-2-ol]",6.74,6.00
"Fc1cncc2c1c(N(CC(F)F)c1ccnc(C#CC3(C(F)(F)F)CC3)c1)nc1nncn12 [Example 55, N-(2,2-difluoroethyl)-6-fluoro-N-(2-((1-(trifluoromethyl)cyclopropyl)ethynyl)pyridin-4-yl)pyrido[4,3-e][1,2,4]triazolo[4,3-a]pyrimidin-5-amine]",7.63,7.55
"Cc1nnc2nc(N3CCOCc4c(C#CC5CN(C)CCO5)cccc43)c3c(F)cncc3n12 (centres unmarked) [Example 56, 1-(10-fluoro-3-methyl-2,4,5,7,12-pentazatricyclo[7.4.0.02,6]trideca-1(13),3,5,7,9,11-hexaen-8-yl)-6-[2-(4-methylmorpholin-2-yl)ethynyl]-3,5-dihydro-2H-4,1-benzoxazepine]",7.73,6.96
"CN(c1cncc(-c2ccc(C3CC3)cc2)n1)c1nc2nncn2c2cnccc12 [Example 57, N-[6-(4-cyclopropylphenyl)pyrazin-2-yl]-N-methyl-2,4,5,7,12-pentazatricyclo[7.4.0.02,6]trideca-1(13),3,5,7,9,11-hexaen-8-amine]",6.89,8.00
"CCN(c1cccc(-c2ccc(C3CC3)nc2)c1)c1nc2nncn2c2cnccc12 [Example 58, N-[3-(6-cyclopropyl-3-pyridyl)phenyl]-N-ethyl-2,4,5,7,12-pentazatricyclo[7.4.0.02,6]trideca-1(13),3,5,7,9,11-hexaen-8-amine]",6.66,7.54
